Experimental data: patent publication US12509431B2, “1,4-dihydroquinazolinone compounds and uses thereof” (Edgewise Therapeutics, Inc., priority 2022, dated 2025)

Assays:
Assay type in all cases: biochemical
Settings in all cases: Table 8
[1] = target: T1, Porcine Ventricle myofibrils (left ventricle of Yucatan minipigs) (Sus scrofa, UniProt P79293); assay: Myofibril ATPase assay (PK/LDH NADH-coupled), ventricle myofibrils
T1 construct: Myofibrils from porcine cardiac muscle was isolated from the left ventricle of Yucatan minipigs; tissue Exemplar Genetics; host or cells: left ventricle of Yucatan minipigs
T1 sequence (P79293 whole entry): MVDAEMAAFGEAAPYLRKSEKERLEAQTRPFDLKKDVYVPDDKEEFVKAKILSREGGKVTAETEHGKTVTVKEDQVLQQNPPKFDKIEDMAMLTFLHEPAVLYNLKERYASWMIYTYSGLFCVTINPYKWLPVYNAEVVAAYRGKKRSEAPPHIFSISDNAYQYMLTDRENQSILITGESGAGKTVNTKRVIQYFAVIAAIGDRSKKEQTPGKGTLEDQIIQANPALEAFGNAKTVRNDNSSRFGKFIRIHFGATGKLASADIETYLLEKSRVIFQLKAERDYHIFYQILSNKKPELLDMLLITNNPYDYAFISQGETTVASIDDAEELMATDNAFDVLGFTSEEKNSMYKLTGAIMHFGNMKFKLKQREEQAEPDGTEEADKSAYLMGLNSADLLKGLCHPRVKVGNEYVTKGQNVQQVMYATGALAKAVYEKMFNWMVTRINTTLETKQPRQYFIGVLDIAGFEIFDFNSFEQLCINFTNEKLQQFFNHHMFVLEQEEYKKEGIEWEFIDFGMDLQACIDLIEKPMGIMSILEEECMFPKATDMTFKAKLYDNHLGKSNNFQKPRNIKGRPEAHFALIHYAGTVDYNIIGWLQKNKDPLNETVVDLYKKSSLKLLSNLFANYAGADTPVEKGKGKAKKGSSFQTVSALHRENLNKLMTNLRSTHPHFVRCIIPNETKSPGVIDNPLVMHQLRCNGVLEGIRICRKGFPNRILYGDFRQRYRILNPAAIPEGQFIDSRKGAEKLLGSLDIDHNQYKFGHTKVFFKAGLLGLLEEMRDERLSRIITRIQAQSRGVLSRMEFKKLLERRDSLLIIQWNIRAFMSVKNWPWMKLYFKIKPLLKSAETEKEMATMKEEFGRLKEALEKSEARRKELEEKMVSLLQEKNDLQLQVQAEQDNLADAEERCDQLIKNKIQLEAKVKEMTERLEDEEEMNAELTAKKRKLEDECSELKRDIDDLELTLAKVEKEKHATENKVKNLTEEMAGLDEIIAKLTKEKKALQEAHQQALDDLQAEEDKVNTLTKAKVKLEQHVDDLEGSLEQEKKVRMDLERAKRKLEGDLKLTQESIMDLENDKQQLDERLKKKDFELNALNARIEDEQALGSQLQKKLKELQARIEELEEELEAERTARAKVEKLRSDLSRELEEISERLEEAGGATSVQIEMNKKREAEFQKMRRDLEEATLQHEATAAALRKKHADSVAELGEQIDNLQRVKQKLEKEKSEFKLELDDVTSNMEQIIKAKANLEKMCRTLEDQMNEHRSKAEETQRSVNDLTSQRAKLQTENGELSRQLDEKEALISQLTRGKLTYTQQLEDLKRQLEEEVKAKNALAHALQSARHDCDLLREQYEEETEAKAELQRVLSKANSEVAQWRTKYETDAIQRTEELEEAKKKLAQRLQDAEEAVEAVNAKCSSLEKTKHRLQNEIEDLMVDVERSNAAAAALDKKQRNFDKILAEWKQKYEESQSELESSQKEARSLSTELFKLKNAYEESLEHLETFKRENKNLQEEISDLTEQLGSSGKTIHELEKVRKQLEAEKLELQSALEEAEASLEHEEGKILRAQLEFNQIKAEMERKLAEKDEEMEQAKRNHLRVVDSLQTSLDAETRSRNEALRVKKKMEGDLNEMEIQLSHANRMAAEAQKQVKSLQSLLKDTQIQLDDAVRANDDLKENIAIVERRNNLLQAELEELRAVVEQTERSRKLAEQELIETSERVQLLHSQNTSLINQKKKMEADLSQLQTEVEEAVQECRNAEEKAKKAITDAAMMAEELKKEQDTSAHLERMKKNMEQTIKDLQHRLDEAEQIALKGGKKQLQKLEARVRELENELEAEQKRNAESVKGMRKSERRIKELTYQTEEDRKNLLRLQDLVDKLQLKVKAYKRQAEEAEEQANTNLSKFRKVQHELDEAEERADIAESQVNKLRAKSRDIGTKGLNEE
Protocol: (§1) Myofibril ATPase assays are known in the art to be useful in evaluating small molecules for the treatment of HCM and other cardiac indications. Myosin ATPase activity is assessed by using a coupled reaction system, in which ADP generated by the myosin ATPase function is coupled to the disappearance of NADH through the pyruvate kinase/lactate dehydrogenase (PK-LDH) system. ATPase activity produces ADP, which is used as a substrate for PK to produce pyruvate and regenerate ATP. The pyruvate is then used as a substrate by LDH to oxidize NADH to NAD+. The rate of the reaction is monitored through the time-dependent disappearance of NADH using absorbance at 340 nm, which, when the couple system is in stoichiometric excess, is directly correlated to the ATPase activity of the myosin. Inhibition of ATPase activity by the assayed compounds is indicated by a reduced rate of NADH loss, relative to vehicle-treated controls, over the experimental time window. Rabbit Skeletal and Porcine Ventricle are the primary sources of myofibril material.
(§2) Materials: The following stock solutions and reagents were used in the Myofibril ATPase Assay:
(§3) Stock Solutions of pCa buffer. Combine PIPES, CaCl2), and EGTA solutions with water. Adjust pH to 7.0 and bring final volume to 100 mL.
(§4) Buffer A & Buffer B. Prepare buffers A and B according to the table below.
(§5) Myofibril ATPase Assay Procedure: BSA, ATP, NADH, PEP, and DTT solutions were thawed at room temperature, then transferred to ice. Pellet-frozen myofibrils were transferred with approximately twice the required volume into a sufficiently large tube and capped. Myofibrils were thawed by rolling in a water bath for approximately 15 min at room temperature and cooled on ice. Buffers A and B were prepared by adjusting volumes as necessary for required number of wells and stored on ice. 0.5 μL of the compounds to be assayed were added into wells. 25 μL of Buffer A was dispensed into the wells, followed by 25 μL of Buffer B. The wells were measured for absorbance at 340 nm, using a kinetic protocol in which the wells are read every 1.5-2 min for 75 min. Assay data analysis was performed using a python script that filtered the raw data to retain those points falling between a starting and ending time and between a maximum and minimum absorbance, then used the filtered time-domain 340 nm absorbance data in each well to calculate a slope via linear regression analysis in units of mAU/min. Compound slopes were normalized between 100% and 0% activity, where 100% represented the slope of wells containing only compound vehicle, and fit to a 4-parameter logistic model. In addition to the fit parameters, the EC25% is calculated, relative to the 100% normalized value. In the case of inhibitors, EC50% is also calculated, if available. Fit parameters, calculated effective concentrations, filtered raw data, and calculated slopes were exported, in addition to compound-specific graphs of normalized ATPase activity versus concentration in μM.
Cardiac Myofibril Isolation:
Myofibrils from porcine cardiac muscle was isolated from the left ventricle of Yucatan minipigs. Myofibrils were prepared using a method based upon those described in Herrmann et al. (1993) and summarized here. Minced tissue was homogenized for 50 sec with a Polytron homogenizer into 10 volumes (relative to weight in grams) of Isolation Buffer A (75 mM KCl, 10 mM Imidazole, 2 mM MgCl2, 2 mM EGTA, 1 mM NaN3, 1% v/v Triton X-100) supplemented with 4 mM Phosphocreatine, 1 mM ATP, 50 mM BDM, 1 mM DTT, 1 mM Benzamide HCl, 0.1 mM PMSF, 10 μM leupeptin, 5 μM pepstatin, and 10 mM EDTA. The myofibrils were recovered by centrifugation (Beckman Allegra 6R, 1200 g, 15 min) and resuspended in 10 volumes Isolation Buffer B (Buffer A above without supplemental reagents). The myofibrils were further homogenized described above and recovered by centrifugation for 7 mins. Cellular membranes and debris were removed by 3 washes in Isolation Buffer B, centrifuging each as before. […]

[2] = tested on: Rabbit Skeletal myofibrils (rabbit psoas muscle); assay: Myofibril ATPase assay (PK/LDH NADH-coupled), skeletal myofibrils
Protocol: as §1, §2, §3, §4, §5
Skeletal Myofibril Isolation:
Myofibrils from various animals and tissue types were acquired from a variety of sources: rabbit psoas muscle was purchased from Pel-Freez Biologicals (Rogers, AR) and porcine cardiac muscle was purchased from Exemplar Genetics. All myofibrils were prepared using a method based upon those described in Herrmann et al. (1993) and summarized here. Minced tissue was homogenized for 50 sec with a Polytron homogenizer into 10 volumes (relative to weight in grams) of Isolation Buffer A (50 mM Tris, pH 8.0, 0.1 M potassium acetate, 5 mM KCl, 2 mM DTT, 5 mM EDTA, 0.5% v/v Triton X-100) supplemented with 0.1 mM PMSF, 10 μM leupeptin, 5 μM pepstatin, and 0.5 mM sodium azide. The myofibrils were recovered by centrifugation (Beckman Allegra 6R, 1200 g, 10 min) and resuspended in 10 volumes Isolation Buffer B (Buffer A above without protease inhibitors or sodium azide). The myofibrils were further homogenized as before and recovered by centrifugation. […]

[3] = tested on: Porcine Atria myofibrils; assay: Myofibril ATPase assay (PK/LDH NADH-coupled), atria myofibrils
Protocol: as §5

| Compound | Porcine Ventricle IC25 [1] | Rabbit Psoas IC25 [2] | Porcine Atria IC25 [3] |
| --- | --- | --- | --- |
| C[C@H](NC(=O)CN1C(=O)Nc2ccc(F)c(F)c2[C@@H]1C)c1ccc(F)cc1F (relative stereo) [Compound B231, 2-[(4S*)-5,6-Difluoro-4-methyl-2-oxo-1,4-dihydroquinazolin-3-yl]-N-[(1S)-1-(2,4-difluorophenyl)ethyl]acetamide] | 1558 nM | 21.07 nM | 210 nM |
| C[C@H](NC(=O)CN1C(=O)Nc2ccc(F)c(F)c2[C@H]1C)c1ccc(F)cc1F (relative stereo) [Compound B232, 2-[(4R*)-5,6-Difluoro-4-methyl-2-oxo-1,4-dihydroquinazolin-3-yl]-N-[(1S)-1-(2,4-difluorophenyl)ethyl]acetamide] | 396.3 nM | 32.8 nM | 40 nM |
| Cc1cc(C#N)nnc1C(C)NC(=O)CN1Cc2c(ccc(F)c2F)NC1=O (single isomer, unassigned) [Compound B23] | 34.7 nM | 12.4 nM | 40 nM |
| Cc1ccnnc1C(C)NC(=O)CN1Cc2c(ccc(F)c2F)NC1=O (single isomer, unassigned) [Compound B25] | 2494 nM | 4823 nM | 700 nM |
| Cc1cc([C@H](C)NC(=O)CN2Cc3c(ccc(F)c3F)NC2=O)ncc1C#N (single isomer, unassigned) [Compound B35] | 948 nM | 1252 nM | 580 nM |
| Cc1cnncc1C(C)NC(=O)CN1Cc2c(ccc(F)c2F)NC1=O (single isomer, unassigned) [Compound B47] | 96660 nM | 100000 nM | 100000 nM |
| CC(NC(=O)CN1Cc2c(ccc(F)c2F)NC1=O)c1cc(C#N)c(F)cn1 (single isomer, unassigned) [Compound B53] | 7534 nM | 100000 nM | 90 nM |
| CC(C)C[C@H](C(=O)N[C@H](C)c1ccc(F)cc1F)N1Cc2cc(F)ccc2NC1=O (single isomer, unassigned) [Compound B67] | 9364 nM | 7017 nM | 43940 nM |
| Cc1cc(C(C)NC(=O)CN2Cc3c(ccc(F)c3F)NC2=O)ncc1F (single isomer, unassigned) [Compound B69] | 298.7 nM | 3174 nM | 610 nM |
| CC(NC(=O)CN1Cc2c(ccc(F)c2F)NC1=O)c1cc2c(cn1)OCCN2C (single isomer, unassigned) [Compound B74] | 100000 nM | 100000 nM | 1240 nM |
| O=C(CN1Cc2c(ccc(F)c2F)NC1=O)NC1COCc2cc(F)ccc21 (single isomer, unassigned) [Compound B76] | 346.5 nM | 5359 nM | 390 nM |
| O=C(CN1Cc2c(ccc(F)c2F)NC1=O)NC1COc2ccc(F)cc2C1 (single isomer, unassigned) [Compound B87] | 2048 nM | 1110 nM | 190 nM |
| CC1c2ccccc2NC(=O)N1CC(=O)N[C@@H](CO)c1ccc(F)cc1F (single isomer, unassigned) [Compound B200, N-[(1R)-1-(2,4-difluorophenyl)-2-hydroxyethyl]-2-[(4R*)-4-methyl-2-oxo-1,4-dihydroquinazolin-3-yl]acetamide] | 79130 nM | 2863 nM | 2450 nM |
| O=C(CN1Cc2c(ccc(F)c2F)NC1=O)N[C@H]1CCc2cc(F)cnc21 (single isomer, unassigned) [Compound B351] | 100000 nM | 100000 nM | 100000 nM |
| Cc1nc([C@@H](C)NC(=O)CN2Cc3c(ccc(F)c3F)NC2=O)ncc1C#N (single isomer, unassigned) [Compound B352] | 2360 nM | 4450 nM | 610 nM |
| Cc1nc(C#N)ncc1[C@@H](C)NC(=O)CN1Cc2c(ccc(F)c2F)NC1=O [Compound B1] | 59.9 nM | 20.1 nM | 90 nM |
| Cc1nc(C#N)ncc1[C@H](C)NC(=O)CN1Cc2c(ccc(F)c2F)NC1=O [Compound B2] | 7734 nM | 5739 nM | 960 nM |
| Cc1nsc([C@H](C)NC(=O)CN2Cc3c(ccc(F)c3F)NC2=O)n1 [Compound B3] | 52510 nM | 100000 nM | 34810 nM |
| N#Cc1cnc2c(c1)COC[C@H]2NC(=O)CN1Cc2c(ccc(F)c2F)NC1=O [Compound B4] | 116.1 nM | 131.8 nM | 70 nM |
| N#Cc1cnc2c(c1)COC[C@@H]2NC(=O)CN1Cc2c(ccc(F)c2F)NC1=O [Compound B5] | 100000 nM | 4565 nM | 100000 nM |
| O=C(CN1Cc2c(ccc(F)c2F)NC1=O)N[C@@H]1COc2cc(F)cnc21 [Compound B6] | 148.3 nM | 123.2 nM | 70 nM |
| O=C(CN1Cc2c(ccc(F)c2F)NC1=O)N[C@H]1COc2cc(F)cnc21 [Compound B7] | 2786 nM | 29140 nM | 450 nM |
| COc1cnc([C@H](C)NC(=O)CN2Cc3cc(F)ccc3NC2=O)c(F)c1 [Compound B179] | 100000 nM | 100000 nM |  |
